Reference: patent US20180353501A1 (Arvinas, Inc., priority 2017, published 2018)

Legend:
FLAG-p38δ = target: T1, FLAG-p38δ (Homo sapiens, UniProt O15264); experiment: TUBE1 immunoprecipitation of polyubiquitinated p38δ, HeLa cells; type: cell-based; details: 1 μM, 3 hours
T1 construct: expressed in transfected cells; host or cells: HeLa cells, transient transfection with Lipofectamine 2000
T1 sequence (O15264 1-365): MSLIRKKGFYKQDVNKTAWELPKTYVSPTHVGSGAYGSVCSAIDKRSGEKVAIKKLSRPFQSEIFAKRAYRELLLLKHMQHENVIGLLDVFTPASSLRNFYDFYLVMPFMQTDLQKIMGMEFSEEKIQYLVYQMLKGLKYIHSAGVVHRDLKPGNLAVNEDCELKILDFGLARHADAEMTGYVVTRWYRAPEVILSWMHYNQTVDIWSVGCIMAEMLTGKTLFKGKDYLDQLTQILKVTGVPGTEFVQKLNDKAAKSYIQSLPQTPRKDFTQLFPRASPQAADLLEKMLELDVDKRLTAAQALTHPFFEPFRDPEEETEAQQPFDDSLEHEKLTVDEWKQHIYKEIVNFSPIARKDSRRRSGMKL
Method: FIG. 18. Exemplary compound 46 induces polyubiquitination of p38δ. (A) HeLa cells were co-transfected with HA-Ub and FLAG p38δ and treated with vehicle (DMSO), 1 μM of compound 50, or 1 μM of compound 46 for 3 hours. Lysates were immunoprecipitated with tandem ubiquitin binding entity (TUBE1) agarose beads and assessed by western blots detecting FLAG (p38δ). TUBE1 binds tetra ubiquitin chains with high affinity, thereby enriching for polyubiquitinated proteins. In this assay, HA (Ub) serves as an immunoprecipitation control for poly-Ub TUBE1 enrichment.
Based on these exemplary compound 50-induced and exemplary compound 46-induced ternary complex affinity differences, both in vitro and in cells, whether they were predictive of PROTAC-induced p38δ cellular ubiquitination was examined.
TUBE1 immunoprecipitation experiments were carried out exactly as described above, except for the fact that 1 mg of normalized HeLa lysate was loaded onto 20 μL TUBE1 agarose (LifeSensors) resin per sample.

p38δ = target: T2, p38δ (Homo sapiens, UniProt O15264); experiment: Cellular thermal shift assay (CETSA), MDA-MB-231 cell lysate; type: cell-based; details: 100 μM, 30 minutes, 51-55° C., vs DMSO
T2 construct: endogenous in cells; host or cells: MDA-MB-231 (intact cells for degradation; cleared cell lysate for CETSA)
T2 sequence (O15264 1-365): T1 sequence (O15264 1-365)
Method: FIGS. 17A and 17B. […] (A) Cellular thermal shift assay (CETSA) was conducted in MDA-MB-231 cells as a means to monitor cellular target engagement. Cell lysate was incubated with either vehicle (DMSO), exemplary compound 50 (100 μM), or exemplary compound 46 (100 μM) for 30 minutes prior to melting at the indicated temperatures. Assay was performed in duplicate and western blots of p38δ and α-tubulin (negative control) are shown. (B) Raw band intensities from (A) were measured, averaged, and reported (with SD) with increasing temperature (51-55° C.) from left-to-right. Top: p38δ CETSA analysis. […] Bottom: α-tubulin CETSA analysis.
To further assess these findings, a more biologically-relevant context for measuring ternary complex formation was used. […] Thus, whether PROTAC-induced PPIs could be monitored in a complex cellular environment using CETSA was examined. […]
CETSA protocol was adapted from (Mateus A, Maatta T A, & Savitski M M (2016) Thermal proteome profiling: unbiased assessment of protein state through heat-induced stability changes. Proteome Sci 15:13). […] After cooling, samples were spun down for 20 minutes (14,000×g at 4° C.) and the supernatant (soluble fraction) was analyzed by SDS-PAGE and immunoblotted for p38δ and alpha-tubulin (negative control).

Structure (SMILES)	TUBE1-reactivity (poly-Ub p38δ) (FLAG-p38δ)	thermal shift in the p38δ melting profile (p38δ)
COc1cc2c(Oc3ccc(NC(=O)C4(C(=O)Nc5ccc(F)cc5)CC4)cc3F)ccnc2cc1OCCOCCOCCOc1cc(-c2scnc2C)ccc1CNC(=O)[C@@H]1C[C@@H](O)CN1C(=O)[C@H](C(C)C)N1Cc2ccccc2C1=O [compound 46]	increased TUBE1-reactivity	more pronounced at each melting temperature tested
COc1cc2c(Oc3ccc(NC(=O)C4(C(=O)Nc5ccc(F)cc5)CC4)cc3F)ccnc2cc1OCCCCOCCCCOCC(=O)N[C@H](C(=O)N1C[C@H](O)C[C@H]1C(=O)NCc1ccc(-c2scnc2C)cc1)C(C)(C)C [compound 50, N-(3-fluoro-4-((7-(4-(4-(2-(((S)-1-((2S,4R)-4-hydroxy-2-((4-(4-methylthiazol-5-yl)benzyl)carbamoyl)pyrrolidin-1-yl)-3,3-dimethyl-1-oxobutan-2-yl)amino)-2-oxoethoxy)butoxy)buto-xy)-6-methoxyquinolin-4-yl)oxy)phenyl)-N-(4-fluorophenyl)cyclopropane-1,1-dicarboxa-mide]	–	small, but statistically-significant (p=0.0121) thermal shift
